Experimental data published in PMC5448077, “Development of an orally available inhibitor of CLK1 for skipping a mutated dystrophin exon in Duchenne muscular dystrophy” (Scientific Reports, 2017).

Key:
Experiment in all cases: biochemical
AKT2 = AKT2 (Homo sapiens, UniProt P31751)
Method in brief: (§1)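 Human kinases phosphorylating kinase-specific synthetic peptides, assayed by mobility shift (MSA) or IMAP fluorescence polarization, in 20 mM HEPES pH 7.5, 0.01% Triton X-100, 2 mM DTT with substrate/ATP-metal. Reactions ran 1 or 5 h at room temperature; activity = P/(P + S) from product and substrate peak heights.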

WNK2 = WNK2 (Homo sapiens, UniProt Q9Y3S1)
Method in brief: as §1

EGFR(L861Q) = EGFR(L861Q) (Homo sapiens, UniProt P00533, L861Q)
Method in brief: as §1

DYRK1B = DYRK1B (Homo sapiens, UniProt Q9Y463)
Method in brief: as §1

NEK4 = NEK4 (Homo sapiens, UniProt P51957)
Method in brief: as §1

MST2 = target: T1, MST2 (Homo sapiens, UniProt Q13188)
T1 construct: gene STK3
T1 sequence (Q13188 whole entry): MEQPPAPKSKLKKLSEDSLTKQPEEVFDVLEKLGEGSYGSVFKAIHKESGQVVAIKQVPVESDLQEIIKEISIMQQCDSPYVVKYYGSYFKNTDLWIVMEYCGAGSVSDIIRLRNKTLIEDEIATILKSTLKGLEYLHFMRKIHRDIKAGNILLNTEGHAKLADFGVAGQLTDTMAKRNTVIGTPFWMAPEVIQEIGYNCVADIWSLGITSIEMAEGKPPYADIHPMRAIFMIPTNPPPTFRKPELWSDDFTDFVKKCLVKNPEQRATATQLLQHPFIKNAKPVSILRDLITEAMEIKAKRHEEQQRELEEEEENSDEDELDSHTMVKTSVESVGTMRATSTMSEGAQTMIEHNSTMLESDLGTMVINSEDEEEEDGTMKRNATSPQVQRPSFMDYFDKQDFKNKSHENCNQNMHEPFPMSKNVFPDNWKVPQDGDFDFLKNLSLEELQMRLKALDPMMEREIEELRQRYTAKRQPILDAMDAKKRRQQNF
Method in brief: as §1

RSK3 = target: T2, RSK3 (Homo sapiens, UniProt Q15349)
T2 construct: gene RPS6KA2
T2 sequence (Q15349 whole entry): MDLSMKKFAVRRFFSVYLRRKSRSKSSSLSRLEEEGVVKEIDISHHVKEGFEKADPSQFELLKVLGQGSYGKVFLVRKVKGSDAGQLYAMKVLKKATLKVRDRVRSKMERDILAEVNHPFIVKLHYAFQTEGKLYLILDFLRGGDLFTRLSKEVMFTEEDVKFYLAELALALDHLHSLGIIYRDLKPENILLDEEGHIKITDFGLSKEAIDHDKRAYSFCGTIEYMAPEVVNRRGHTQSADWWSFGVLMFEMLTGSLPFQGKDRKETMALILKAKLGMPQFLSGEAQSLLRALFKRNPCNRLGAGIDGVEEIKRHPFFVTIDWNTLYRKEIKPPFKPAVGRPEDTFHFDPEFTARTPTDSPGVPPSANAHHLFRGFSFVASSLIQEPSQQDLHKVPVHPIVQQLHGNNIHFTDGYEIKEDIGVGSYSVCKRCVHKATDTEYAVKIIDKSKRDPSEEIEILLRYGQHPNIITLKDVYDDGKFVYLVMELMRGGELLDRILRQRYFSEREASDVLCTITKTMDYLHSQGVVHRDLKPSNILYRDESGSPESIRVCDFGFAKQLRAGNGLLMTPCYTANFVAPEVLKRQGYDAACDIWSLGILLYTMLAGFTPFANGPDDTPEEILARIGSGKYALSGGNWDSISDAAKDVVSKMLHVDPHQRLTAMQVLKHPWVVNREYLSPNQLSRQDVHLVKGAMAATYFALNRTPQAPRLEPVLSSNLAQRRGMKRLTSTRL
Method in brief: as §1

RSK1 = target: T3, RSK1 (Homo sapiens, UniProt Q15418)
T3 construct: gene RPS6KA1
Method in brief: as §1

LTK = LTK (Homo sapiens, UniProt P29376)
Chain of LTK (P29376 whole entry): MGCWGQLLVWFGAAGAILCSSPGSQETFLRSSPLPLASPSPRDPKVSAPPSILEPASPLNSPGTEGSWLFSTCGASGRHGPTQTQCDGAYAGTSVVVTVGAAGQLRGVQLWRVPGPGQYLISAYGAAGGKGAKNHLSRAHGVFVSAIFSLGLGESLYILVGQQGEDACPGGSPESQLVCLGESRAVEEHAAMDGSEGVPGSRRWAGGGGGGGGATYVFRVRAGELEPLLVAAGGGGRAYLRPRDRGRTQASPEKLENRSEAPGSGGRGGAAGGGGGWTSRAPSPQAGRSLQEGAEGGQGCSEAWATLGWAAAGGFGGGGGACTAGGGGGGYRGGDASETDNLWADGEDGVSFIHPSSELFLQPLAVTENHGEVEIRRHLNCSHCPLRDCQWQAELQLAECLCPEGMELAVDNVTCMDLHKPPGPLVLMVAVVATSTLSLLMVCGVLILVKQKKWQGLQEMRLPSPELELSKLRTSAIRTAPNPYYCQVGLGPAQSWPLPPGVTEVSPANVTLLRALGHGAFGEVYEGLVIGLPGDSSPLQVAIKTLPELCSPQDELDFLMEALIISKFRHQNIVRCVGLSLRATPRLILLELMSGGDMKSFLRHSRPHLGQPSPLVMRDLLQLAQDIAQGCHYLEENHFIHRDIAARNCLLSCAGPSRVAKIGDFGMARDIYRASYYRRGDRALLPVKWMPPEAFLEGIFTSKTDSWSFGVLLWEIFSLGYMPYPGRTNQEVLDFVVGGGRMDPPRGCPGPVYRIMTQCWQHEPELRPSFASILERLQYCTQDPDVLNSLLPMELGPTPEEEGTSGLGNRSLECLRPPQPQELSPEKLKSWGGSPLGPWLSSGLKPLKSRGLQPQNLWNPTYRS
Method in brief: as §1

CDK2/CycE1 = CDK2/CycE1 (Homo sapiens, UniProt P24941)
Method in brief: as §1

PKCζ = target: T4, PKCζ (Homo sapiens, UniProt Q05513)
T4 construct: gene PRKCZ
T4 sequence (Q05513 whole entry): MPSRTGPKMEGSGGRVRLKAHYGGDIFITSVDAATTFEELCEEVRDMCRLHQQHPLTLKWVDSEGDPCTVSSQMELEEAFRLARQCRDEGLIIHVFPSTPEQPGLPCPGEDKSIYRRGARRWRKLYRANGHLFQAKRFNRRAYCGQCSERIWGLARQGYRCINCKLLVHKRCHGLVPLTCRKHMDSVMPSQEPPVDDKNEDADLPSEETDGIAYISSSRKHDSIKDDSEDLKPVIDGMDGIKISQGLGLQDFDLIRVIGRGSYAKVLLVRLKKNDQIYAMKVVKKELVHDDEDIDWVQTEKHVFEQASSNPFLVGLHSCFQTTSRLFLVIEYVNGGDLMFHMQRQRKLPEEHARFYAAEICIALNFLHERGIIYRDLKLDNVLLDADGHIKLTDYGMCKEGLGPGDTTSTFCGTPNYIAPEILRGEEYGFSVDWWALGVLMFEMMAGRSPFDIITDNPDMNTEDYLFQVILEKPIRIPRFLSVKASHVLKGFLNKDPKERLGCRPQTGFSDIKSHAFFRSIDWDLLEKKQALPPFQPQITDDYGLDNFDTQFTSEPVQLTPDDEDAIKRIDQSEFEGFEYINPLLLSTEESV
Method in brief: as §1

Erk5 = target: T5, Erk5 (Homo sapiens, UniProt Q13164)
T5 construct: gene MAPK7
Method in brief: as §1

RET(Y791F) = RET(Y791F) (Homo sapiens, UniProt P07949, Y791F)
Method in brief: as §1

EPHA7 = EPHA7 (Homo sapiens, UniProt Q15375)
Method in brief: as §1

MAPKAPK3 = MAPKAPK3 (Homo sapiens, UniProt Q16644)
Method in brief: as §1

PKCι = target: T6, PKCι (Homo sapiens, UniProt P41743)
T6 construct: gene PRKCI
T6 sequence (P41743 whole entry): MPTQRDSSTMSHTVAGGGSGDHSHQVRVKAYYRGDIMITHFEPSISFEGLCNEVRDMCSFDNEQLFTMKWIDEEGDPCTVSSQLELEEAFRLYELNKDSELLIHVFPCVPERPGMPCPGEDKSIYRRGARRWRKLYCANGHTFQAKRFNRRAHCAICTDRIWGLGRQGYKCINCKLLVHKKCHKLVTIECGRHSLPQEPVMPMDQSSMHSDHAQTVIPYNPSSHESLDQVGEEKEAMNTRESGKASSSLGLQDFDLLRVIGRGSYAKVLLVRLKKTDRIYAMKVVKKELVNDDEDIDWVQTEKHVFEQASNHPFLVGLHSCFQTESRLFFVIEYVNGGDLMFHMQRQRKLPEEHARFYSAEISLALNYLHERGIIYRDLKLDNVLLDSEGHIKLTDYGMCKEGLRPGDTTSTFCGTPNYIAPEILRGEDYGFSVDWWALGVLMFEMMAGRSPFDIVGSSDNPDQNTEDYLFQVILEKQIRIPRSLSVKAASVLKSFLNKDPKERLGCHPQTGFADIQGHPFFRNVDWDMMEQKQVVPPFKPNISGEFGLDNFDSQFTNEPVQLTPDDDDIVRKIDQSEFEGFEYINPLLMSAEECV
Method in brief: as §1

RET(S891A) = RET(S891A) (Homo sapiens, UniProt P07949, S891A)
Method in brief: as §1

EGFR(T790M) = EGFR(T790M) (Homo sapiens, UniProt P00533, T790M)
Chain of EGFR(T790M) (P00533 whole entry T790M): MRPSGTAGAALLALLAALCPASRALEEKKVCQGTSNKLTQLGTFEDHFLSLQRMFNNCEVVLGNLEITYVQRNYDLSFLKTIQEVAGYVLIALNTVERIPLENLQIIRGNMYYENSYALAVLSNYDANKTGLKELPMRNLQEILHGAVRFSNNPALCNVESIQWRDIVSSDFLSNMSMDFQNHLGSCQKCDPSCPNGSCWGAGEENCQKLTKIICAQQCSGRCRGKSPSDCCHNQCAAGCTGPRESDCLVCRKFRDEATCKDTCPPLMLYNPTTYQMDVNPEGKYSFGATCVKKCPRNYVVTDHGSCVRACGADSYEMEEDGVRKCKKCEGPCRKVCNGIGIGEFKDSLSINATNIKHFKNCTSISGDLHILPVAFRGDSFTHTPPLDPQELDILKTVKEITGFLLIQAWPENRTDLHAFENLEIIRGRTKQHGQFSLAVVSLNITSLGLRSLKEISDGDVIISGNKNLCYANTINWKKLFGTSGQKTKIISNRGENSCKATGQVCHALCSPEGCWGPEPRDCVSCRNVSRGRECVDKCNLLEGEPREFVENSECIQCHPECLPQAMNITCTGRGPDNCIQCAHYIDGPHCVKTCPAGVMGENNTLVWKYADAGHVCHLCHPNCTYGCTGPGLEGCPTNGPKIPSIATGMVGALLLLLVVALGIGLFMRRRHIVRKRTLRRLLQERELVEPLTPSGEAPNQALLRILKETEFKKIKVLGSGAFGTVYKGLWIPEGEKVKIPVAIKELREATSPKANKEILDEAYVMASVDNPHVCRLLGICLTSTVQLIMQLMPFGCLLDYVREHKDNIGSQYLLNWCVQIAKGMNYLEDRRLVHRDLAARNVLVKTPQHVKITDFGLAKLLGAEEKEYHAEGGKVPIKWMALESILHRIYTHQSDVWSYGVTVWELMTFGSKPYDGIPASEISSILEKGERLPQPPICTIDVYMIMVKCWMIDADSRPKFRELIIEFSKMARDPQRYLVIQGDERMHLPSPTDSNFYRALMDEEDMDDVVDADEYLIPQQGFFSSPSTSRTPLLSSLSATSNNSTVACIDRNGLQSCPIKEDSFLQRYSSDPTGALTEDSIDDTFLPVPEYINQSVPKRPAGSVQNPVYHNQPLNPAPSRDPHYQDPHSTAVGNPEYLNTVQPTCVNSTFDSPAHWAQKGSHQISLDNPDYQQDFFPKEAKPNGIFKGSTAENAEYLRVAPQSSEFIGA
Method in brief: as §1

TYRO3 = TYRO3 (Homo sapiens, UniProt Q06418)
Method in brief: as §1

FGFR3(K650E) = FGFR3(K650E) (Homo sapiens, UniProt P22607, K650E)
Method in brief: as §1

Erk1 = target: T7, Erk1 (Homo sapiens, UniProt P27361)
T7 construct: gene MAPK3
T7 sequence (P27361 whole entry): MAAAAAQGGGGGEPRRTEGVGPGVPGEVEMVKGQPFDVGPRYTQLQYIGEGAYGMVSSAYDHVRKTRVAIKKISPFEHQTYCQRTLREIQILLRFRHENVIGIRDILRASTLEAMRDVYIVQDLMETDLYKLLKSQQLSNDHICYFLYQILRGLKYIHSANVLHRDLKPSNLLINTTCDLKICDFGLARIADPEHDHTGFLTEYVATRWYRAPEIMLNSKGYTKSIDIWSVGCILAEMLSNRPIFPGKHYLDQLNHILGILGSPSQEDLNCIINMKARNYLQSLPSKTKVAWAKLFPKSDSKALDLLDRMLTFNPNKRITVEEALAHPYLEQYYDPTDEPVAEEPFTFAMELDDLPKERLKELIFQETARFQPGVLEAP
Method in brief: as §1

MARK1 = MARK1 (Homo sapiens, UniProt Q9P0L2)
Method in brief: as §1

PLK3 = PLK3 (Homo sapiens, UniProt Q9H4B4)
Method in brief: as §1

MST3 = target: T8, MST3 (Homo sapiens, UniProt Q9Y6E0)
T8 construct: gene STK24
Method in brief: as §1

YES(T348I) = target: T9, YES(T348I) (Homo sapiens, UniProt P07947, T348I)
T9 construct: gene YES1
Method in brief: as §1

PAK6 = PAK6 (Homo sapiens, UniProt Q9NQU5)
Method in brief: as §1

BRK = target: T10, BRK (Homo sapiens, UniProt Q13882)
T10 construct: gene PTK6
Method in brief: as §1

AMPKα2/β1/γ1 = target: T11, AMPKα2/β1/γ1 (Homo sapiens, UniProt P54646)
T11 construct: gene PRKAA2
Method in brief: as §1

p38γ = target: T12, p38γ (Homo sapiens, UniProt P53778)
T12 construct: gene MAPK12
Method in brief: as §1

EGFR(L858R) = EGFR(L858R) (Homo sapiens, UniProt P00533, L858R)
Method in brief: as §1

## c1cc(-c2ccc3[nH]ncc3c2)ccn1 [TG693, 5-(4-pyridinyl)-1H-indazole]
AKT2
  inhibition at 1 µM: -3%
WNK2
  inhibition at 1 µM: 4%
EGFR(L861Q)
  inhibition at 1 µM: -5.4%
DYRK1B
  inhibition at 1 µM: 76.1%
NEK4
  inhibition at 1 µM: -4.2%
MST2
  inhibition at 1 µM: 0.5%
RSK3
  inhibition at 1 µM: -4.8%
RSK1
  inhibition at 1 µM: -4.7%
LTK
  inhibition at 1 µM: 3%
CDK2/CycE1
  inhibition at 1 µM: 18.1%
PKCζ
  inhibition at 1 µM: -9.7%
Erk5
  inhibition at 1 µM: 2.2%
RET(Y791F)
  inhibition at 1 µM: 3%
EPHA7
  inhibition at 1 µM: 5%
MAPKAPK3
  inhibition at 1 µM: -13.1%
PKCι
  inhibition at 1 µM: -6.8%
RET(S891A)
  inhibition at 1 µM: -18%
EGFR(T790M)
  inhibition at 1 µM: -0.2%
TYRO3
  inhibition at 1 µM: 0.3%
FGFR3(K650E)
  inhibition at 1 µM: 5.2%
Erk1
  inhibition at 1 µM: 1.4%
MARK1
  inhibition at 1 µM: 13.3%
PLK3
  inhibition at 1 µM: 1.7%
MST3
  inhibition at 1 µM: 1%
YES(T348I)
  inhibition at 1 µM: -1.4%
PAK6
  inhibition at 1 µM: -4.3%
BRK
  inhibition at 1 µM: 5.2%
AMPKα2/β1/γ1
  inhibition at 1 µM: 1.7%
p38γ
  inhibition at 1 µM: 1.4%
EGFR(L858R)
  inhibition at 1 µM: 0.4%
